Measured values published in patent publication US20220193253A1, “SLOW-RELEASE CYTOKINE CONJUGATES” (ProLynx LLC, priority 2019, published 2022).
“Also recorded” adds a separate entry of the source.

Key:
[1] = test system: Foxp3+CD4+ T-cells and CD8+ T-cells; assay: Pharmacodynamics of microsphere-IL-2[N88R,C125S] in NOD mice (flow cytometry); assay type: in vivo
Experimental: Three groups of six NOD mice were used to determine the PK/PD of [aminopropyl]-IL-2[N88R,C125S] released from the microsphere-IL-2[N88R,C125S] conjugate. […] The second group was administered a subcutaneous injection of empty microspheres, in which cyclooctynes were capped with N3(CH2CH2O)7H. The third group was administered a single subcutaneous injection of the microsphere-IL-2[N88R,C125S] of Example 4 (0.5, 1, 5, 10 or 19 mg of protein/kg). Plasma, peripheral blood mononuclear cells (PBMCs) and organ tissues were prepared and analyzed according to the description in figure legends. Flow cytometric analysis of lymphocytes was performed to monitor changes in T-cell populations. The spleen and lymph nodes and islets were isolated and single cell suspensions were prepared. Surface-staining was performed following standard cell surface immunofluorescence staining for flow cytometry. Fixation and intracellular staining followed protocols from the eBioscience Foxp3/Transcription Factor Staining Buffer Set (ThermoFisher Scientific). Antibodies used were against CD3, CD4, CD8, CD25, CD44 CD45, and FoxP3; all were from commercial vendors. Stained single cell suspension were analyzed using a LSRII flow cytometer (BD Biosciences).
The percentage CD8+ cells found in the spleen and PBMCs were approximately 11% and 19% respectively. These percentages increased to approximately 25% and 60% respectively, when treated with the microsphere-IL-2[N88R,C125S]. NOD mice were administered IL2-mutein (QDx5, 25,000 units), a single injection of empty microspheres or microsphere-IL-2[N88R,C125S](18 mg/kg). Mice were sacrificed 2 hours after the last dose on day 5.
To determine an effective dose that would expand the Foxp3^+CD4^+Tcells population without the activation of CD8′ cells, a dose titration study of microsphere-IL-2[N88R,C125S] was performed. Four concentrations of the microsphere-IL-2[N88R,C125S](0.5 mg/kg, 1 mg/kg, 5 mg/kg and 10 mg/kg) were tested and the pharmacodynamics were monitored through PBMCs over two weeks. […] Foxp3^+CD4^+T-cell expansion peaked at four days and returned to baseline levels at day 14 for all doses (FIG. 9 A).

[2] = test system: Treg cells over Teff and NK cells; details: cited from earlier work
[3] = Pharmacokinetics of [aminopropyl]-IL-15 released from microsphere-IL-15; assay type: in vivo, C57BL/6J mice
Experimental: The microsphere-IL-15 slurry of Example 10 (275 nmol protein/mL) was diluted in 25 mM Na citrate buffer pH 5.9 containing 500 mM NaCl, 0.05% tween-20 and 1.25% (w/v) hyaluronic acid. For studies that required various doses of microsphere-IL15, serial dilutions were used obtain the desired microsphere-IL-15 concentration. In all cases, aseptic conditions were used to handle and prepare the microsphere conjugate. Syringes with fixed needles (27G) were backfilled with the conjugate (100 μL). The contents of the syringes were administered either s.c. or i.p. to normal, male C57BL/6J mice. Blood samples were drawn at −24, 4, 8, 24, 48, 96, 168 and 240 hours from alternating groups consisting of 3 mice each. HALT protease inhibitor cocktail (ThermoFisher Scientific) was added to all plasma samples prior to being frozen at −80° C. until analysis.
ELISAs for hIL-15 were performed according to the manufacturer's instructions (R&D Systems, hIL-15 Quantikine, Catalog #D1500) to determine the rhIL-15 plasma. Plasma samples were thawed on ice prior to dilution in the standard diluent provided by the manufacturer. The 4, 8, hour samples were diluted 50-fold, the 24 hour samples was diluted twenty-five fold, and the pre-bleed, 48, 96, 168 and 240 hour samples were diluted ten-fold. hIL-15 concentrations were plot as a function of time and fit using GraphPad Prism software.
Pharmacokinetics of [aminopropyl]-IL-15 released from the microsphere conjugate were measured in normal C57BL/6J mice. Mice were dosed with 2.4 nmol conjugated protein (200 μL injection). […] After approximately 120 hours, the observed concentration quickly decreases (FIG. 11). A one phase decay model fit of data through 120 results in a half-life of at least 200 hours. […] A second injection of MS-IL-15 (50 μg) increases the measured plasma IL-15 at 248 h to a similar concentration of the initial dose.

[4] = test system: T-cells in the spleen and islets; assay: Pharmacodynamics of IL2 and IL2[N88R,C125S] in NOD mice (flow cytometry of spleen and islets); assay type: in vivo; details: daily injections 25,000 units for five days
Experimental: Mice were sacrificed 2 hours after the last injection and the spleen and pancreas were harvested for flow cytometry analysis to measure changes in total number of T-cells and their differentiation in the spleen and islets.

[5] = test system: CD44hiCD8+ T cells and NK cells in PBMCs; assay: Pharmacodynamics of [aminopropyl]-IL-15 released from microsphere-IL-15; assay type: in vivo, C57BL/6J mice; details: for expansion of CD44hiCD8+ T cells / expansion of NK cells: single dose 2.5 μg; for expansion of NK cells in PBMCs: single s.c. injection 12.5, 25 or 50 μg
Experimental: For flow cytometry analysis, PMBCs were prepared and surface staining was performed to quantitate NK1.1, CD3, CD8, and CD44 expressing cells. Commercial FITC-, PE- or allophycocyanin-conjugated antibodies were used. Sample data were collected on a FACScan flow cytometer (BD Biosciences) and analyzed using FlowJo cytometry analysis software (TreeStar, Ashland, Oreg.).
Pharmacodynamics of [aminopropyl]-IL-15 released from the microsphere-IL-15 of Example 10 were measured in normal, male C57BL/6J mice (n=3/group) (FIG. 14). Mice were dosed with microsphere-IL-15 (2.5, 12.5, 25 or 50 μg conjugated protein) prepared in Example 10. PMBCs were prepared and surface stained for flow cytometry analysis of NK1.1, CD3, CD8, and CD44 expressing cells. Commercial FITC-, PE- or allophycocyanin-conjugated antibodies were used. Sample data were collected on a FACScan flow cytometer (BD Biosciences) and analyzed using FlowJo cytometry analysis software (TreeStar, Ashland, Oreg.).

[6] = test system: CD8+ effector Tmem cells; details: continuous infusion over 10 days; cited from earlier work
[7] = test system: cell proliferation; details: cited from earlier work
[8] = single injection 18 mg/kg, day 5
[9] = 2.5, 12.5, 25 or 50 μg conjugated protein
[10] = single sc injection 12.5, 25 or 50 μg

## microsphere-IL-2[N88R,C125S]: PEG hydrogel microspheres carrying linker-N-terminal aminopropyl-IL-2[N88R,C125S] (MeSO2 linker, reductive alkylation); releases [aminopropyl]-IL-2[N88R,C125S]
[1]; doses 0.5-10 mg/kg, PBMCs
  percentage / activation of CD8+ cells, dose titration: did not increase; also recorded: avoids activation
[1]; [8]
  expansion of Foxp3+CD4+ T-cells in spleen and PBMC: massive expansion
  percentage CD8+ cells, PBMCs: 60%
  percentage of T-cells that were Foxp3+CD4+ T-cells, PBMC: ~55%
  percentage of T-cells that were Foxp3+CD4+ T-cells, spleen: ~70%
[1]; single injection 0.5, 1, 5, 10 mg/kg, two weeks
  expansion of Foxp3+CD4+ T-cells in PBMCs, dose titration: dose dependent expansion; also recorded: preferentially expands

## BAY 50-4798: IL-2 mutein having an arginine replacing asparagine at position 88, SEQ ID No: 2
[2]
  increase in selectivity for activation of Treg cells over Teff and NK cells: 3,000 fold

## [aminopropyl]-IL-15: IL-15 with N-terminal aminopropyl remnant, released from microsphere-IL-15
[3]; 50 μg
  AUCip compared to AUCsc: nearly two-fold higher
[3]; released from MS-IL-15 50 μg i.p.
  AUCip: 0.0252 µM·h
[3]; released from MS-IL-15 50 μg s.c.
  AUCsc: 0.0149 µM·h

## Proleukin: Aldesleukin (recombinant IL-2), used as native IL-2 comparator in NOD mice [reference compound]
[4]
  effect on CD4+ and CD8+ effector/memory T-cells in the spleen: increase in both T-cell populations
  effect on the T-cells in the islets compared to PBS vehicle: little to no effect

## rhIL-15: native IL-15, SEQ ID No: 12 [reference compound]
[5]
  expansion of CD44hiCD8+ T cells: no observed expansion
  expansion of NK cells: not observed
[6]
  expansion of CD8+ effector Tmem cells in the peripheral blood: 100 x

## MS-IL-15: BCN-activated PEG hydrogel microspheres loaded with linker-IL-15 (MeSO2 linker, N-terminal reductive alkylation)
[5]; [9]
  change in average body weight: no significant change
  clinical observation: injection site reaction: no injection site reaction
[5]; 12.5, 25 or 50 μg
  fold expansion of NK cells at peak: 2-3 fold
[5]; highest dose 50 μg
  CD44hiCD8+ T cells levels at 28 days: two-fold above the control group
[5]; initial 25.1±1.3 g
  final average body weight: 25.1 ± 1.4 g
[5]; single 50 ug injection
  duration of expansion of CD44hiCD8+ T cells: 28 days
[5]
  expansion of CD44hiCD8+ T cells: no observed expansion
  expansion of NK cells: not observed
  expansion of NK cells in PBMCs: dose dependent expansion
[5]; listed as microsphere-IL15
  expansion of NK cells in PBMCs: expands
[5]; [10]
  CD44hiCD8+ T cells remained elevated above the control group through: 21 days
  expansion of CD44hiCD8+ T cells in PBMCs: dose dependent expansion
  fold expansion of CD44hiCD8+ T cells at peak: two to four fold
  time of peak CD44hiCD8+ T cell expansion post treatment: 5 days
[5]; single sc injection 12.5, 25 or 50 μg, listed as microsphere-IL15
  expansion of CD44hiCD8+ T cells in PBMCs: expands
[3]; 2.4 nmol conjugated protein
  change in average mouse body weight: no significant change
[3]; 2.4 nmol conjugated protein, initial 25.1±1.3 g
  final average mouse body weight: 25.1 ± 1.4 g

## IL-15[N72D]: IL-15 mutein with enhanced receptor agonism, SEQ ID No: 15
[7]
  fold increase in biological activity over native IL-15: 4-5 fold
